Data reported in the supplement of paper PMC10307832.

Columns and labels:
Assay in all cases: relative viability (nuclei count vs DMSO), 5 days (fraction); higher = more cells survive
Metformin + Lapatinib = compound: CN(C)C(=N)NC(=N)N [Metformin] + CS(=O)(=O)CCNCc1ccc(-c2ccc3ncnc(Nc4ccc(OCc5cccc(F)c5)c(Cl)c4)c3c2)o1 [Lapatinib] (partner 2 µM)
How it was run: (§1)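 The day after seeding in 1536-well plates, lung cancer cell lines were treated by pin tool with a single drug, or with a fixed anchor-drug dose together with five library-drug doses (not always all listed) in √10 steps. After 5 days, a combined fix-and-stain solution (final 0.05% Triton X-100, 1% formaldehyde, 1 ug/ml Hoechst) was added. Nuclei counted on 4× images gave relative viability as treated counts over vehicle counts, reported as the median of duplicate plates.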

Apatinib + Luminespib = compound: N#CC1(c2ccc(NC(=O)c3cccnc3NCc3ccncc3)cc2)CCCC1 [Apatinib] + CCNC(=O)c1noc(-c2cc(C(C)C)c(O)cc2O)c1-c1ccc(CN2CCOCC2)cc1 [Luminespib] (partner 0.01 µM)
How it was run: as §1

Apatinib + Dasatinib = compound: N#CC1(c2ccc(NC(=O)c3cccnc3NCc3ccncc3)cc2)CCCC1 [Apatinib] + Cc1nc(Nc2ncc(C(=O)Nc3c(C)cccc3Cl)s2)cc(N2CCN(CCO)CC2)n1 [Dasatinib] (partner 0.075 µM)
How it was run: as §1

Metformin + Navitoclax = compound: CN(C)C(=N)NC(=N)N [Metformin] + CC1(C)CCC(c2ccc(Cl)cc2)=C(CN2CCN(c3ccc(C(=O)NS(=O)(=O)c4ccc(N[C@H](CCN5CCOCC5)CSc5ccccc5)c(S(=O)(=O)C(F)(F)F)c4)cc3)CC2)C1 [Navitoclax] (partner 0.5 µM)
How it was run: as §1

Cell Line: NCI-H650
- relative viability (Metformin + Lapatinib; first compound 10 µM): 1.22
- relative viability (Metformin + Lapatinib; first compound 31.62 µM): 1.04
- relative viability (Metformin + Lapatinib; first compound 100 µM): 0.887
- relative viability (Metformin + Lapatinib; first compound 316.23 µM): 0.799
- relative viability (Metformin + Lapatinib; first compound 1000 µM): 0.942
- relative viability (Apatinib + Luminespib; first compound 0.08 µM): 0.774
- relative viability (Apatinib + Luminespib; first compound 0.253 µM): 0.831
- relative viability (Apatinib + Luminespib; first compound 0.8 µM): 0.872
- relative viability (Apatinib + Luminespib; first compound 2.53 µM): 0.645
- relative viability (Apatinib + Luminespib; first compound 8 µM): 0.524
- relative viability (Apatinib + Dasatinib; first compound 0.08 µM): 0.37
- relative viability (Apatinib + Dasatinib; first compound 0.253 µM): 0.435
- relative viability (Apatinib + Dasatinib; first compound 0.8 µM): 0.483
- relative viability (Apatinib + Dasatinib; first compound 2.53 µM): 0.444
- relative viability (Apatinib + Dasatinib; first compound 8 µM): 0.403

Cell Line: IA-LM
- relative viability (Metformin + Navitoclax; first compound 31.62 µM): 0.93
- relative viability (Metformin + Navitoclax; first compound 100 µM): 0.941
- relative viability (Metformin + Navitoclax; first compound 316.23 µM): 0.686
- relative viability (Metformin + Navitoclax; first compound 1000 µM): 0.645
- relative viability (Metformin + Lapatinib; first compound 10 µM): 1.13
- relative viability (Metformin + Lapatinib; first compound 31.62 µM): 0.944
- relative viability (Metformin + Lapatinib; first compound 316.23 µM): 0.886
- relative viability (Metformin + Lapatinib; first compound 1000 µM): 1.21

Cell Line: ABC-1
- relative viability (Metformin + Lapatinib; first compound 10 µM): 1.53
- relative viability (Metformin + Lapatinib; first compound 31.62 µM): 1.12
- relative viability (Metformin + Lapatinib; first compound 100 µM): 1.4
- relative viability (Metformin + Lapatinib; first compound 316.23 µM): 1.59
- relative viability (Metformin + Lapatinib; first compound 1000 µM): 0.851
- relative viability (Apatinib + Luminespib; first compound 0.253 µM): 0.907
- relative viability (Apatinib + Luminespib; first compound 0.8 µM): 0.646
- relative viability (Apatinib + Luminespib; first compound 2.53 µM): 0.554
- relative viability (Apatinib + Luminespib; first compound 8 µM): 0.553
- relative viability (Apatinib + Dasatinib; first compound 0.253 µM): 0.631
- relative viability (Apatinib + Dasatinib; first compound 0.8 µM): 0.492
- relative viability (Apatinib + Dasatinib; first compound 2.53 µM): 0.509
- relative viability (Apatinib + Dasatinib; first compound 8 µM): 0.484

Cell Line: ChaGo-K-1
- relative viability (Metformin + Navitoclax; first compound 10 µM): 1
- relative viability (Metformin + Navitoclax; first compound 31.62 µM): 1.42
- relative viability (Metformin + Navitoclax; first compound 100 µM): 0.95
- relative viability (Metformin + Navitoclax; first compound 316.23 µM): 0.93
- relative viability (Metformin + Navitoclax; first compound 1000 µM): 1.24
- relative viability (Apatinib + Luminespib; first compound 0.08 µM): 0.618
- relative viability (Apatinib + Luminespib; first compound 0.253 µM): 0.679
- relative viability (Apatinib + Luminespib; first compound 0.8 µM): 0.661
- relative viability (Apatinib + Luminespib; first compound 2.53 µM): 0.519
- relative viability (Apatinib + Luminespib; first compound 8 µM): 0.564
- relative viability (Apatinib + Dasatinib; first compound 0.08 µM): 0.603
- relative viability (Apatinib + Dasatinib; first compound 0.253 µM): 0.535
- relative viability (Apatinib + Dasatinib; first compound 0.8 µM): 0.642
- relative viability (Apatinib + Dasatinib; first compound 2.53 µM): 0.547
- relative viability (Apatinib + Dasatinib; first compound 8 µM): 0.501

Cell Line: NCI-H1623
- relative viability (Apatinib + Luminespib; first compound 0.08 µM): 0.402
- relative viability (Apatinib + Luminespib; first compound 0.253 µM): 0.429
- relative viability (Apatinib + Luminespib; first compound 0.8 µM): 0.465
- relative viability (Apatinib + Luminespib; first compound 2.53 µM): 0.461
- relative viability (Apatinib + Luminespib; first compound 8 µM): 0.476
- relative viability (Apatinib + Dasatinib; first compound 0.08 µM): 0.438
- relative viability (Apatinib + Dasatinib; first compound 0.253 µM): 0.598
- relative viability (Apatinib + Dasatinib; first compound 0.8 µM): 0.493
- relative viability (Apatinib + Dasatinib; first compound 2.53 µM): 0.545
- relative viability (Apatinib + Dasatinib; first compound 8 µM): 0.595

Cell Line: NCI-H1563
- relative viability (Metformin + Lapatinib; first compound 10 µM): 0.999
- relative viability (Metformin + Lapatinib; first compound 31.62 µM): 0.912
- relative viability (Metformin + Lapatinib; first compound 100 µM): 1.02
- relative viability (Metformin + Lapatinib; first compound 316.23 µM): 0.924
- relative viability (Metformin + Lapatinib; first compound 1000 µM): 0.783
- relative viability (Apatinib + Luminespib; first compound 0.08 µM): 0.534
- relative viability (Apatinib + Luminespib; first compound 0.253 µM): 0.536
- relative viability (Apatinib + Luminespib; first compound 0.8 µM): 0.533
- relative viability (Apatinib + Luminespib; first compound 2.53 µM): 0.548
- relative viability (Apatinib + Luminespib; first compound 8 µM): 0.543
- relative viability (Apatinib + Dasatinib; first compound 0.08 µM): 0.444
- relative viability (Apatinib + Dasatinib; first compound 0.253 µM): 0.41
- relative viability (Apatinib + Dasatinib; first compound 0.8 µM): 0.406
- relative viability (Apatinib + Dasatinib; first compound 2.53 µM): 0.475
- relative viability (Apatinib + Dasatinib; first compound 8 µM): 0.451

Cell Line: NCI-H1703
- relative viability (Metformin + Navitoclax; first compound 10 µM): 1.18
- relative viability (Metformin + Navitoclax; first compound 31.62 µM): 1.15
- relative viability (Metformin + Navitoclax; first compound 100 µM): 1.16
- relative viability (Metformin + Navitoclax; first compound 316.23 µM): 0.854
- relative viability (Metformin + Navitoclax; first compound 1000 µM): 0.735
- relative viability (Metformin + Lapatinib; first compound 10 µM): 1.71
- relative viability (Metformin + Lapatinib; first compound 31.62 µM): 1.46
- relative viability (Metformin + Lapatinib; first compound 100 µM): 1.15
- relative viability (Metformin + Lapatinib; first compound 316.23 µM): 1.05
- relative viability (Metformin + Lapatinib; first compound 1000 µM): 1.05

Cell Line: NCI-H1299
- relative viability (Metformin + Navitoclax; first compound 10 µM): 1.12
- relative viability (Metformin + Navitoclax; first compound 31.62 µM): 1.11
- relative viability (Metformin + Navitoclax; first compound 100 µM): 1.15
- relative viability (Metformin + Navitoclax; first compound 316.23 µM): 1.15
- relative viability (Metformin + Navitoclax; first compound 1000 µM): 1.12
- relative viability (Metformin + Lapatinib; first compound 10 µM): 0.973
- relative viability (Metformin + Lapatinib; first compound 31.62 µM): 1.03
- relative viability (Metformin + Lapatinib; first compound 100 µM): 1.04
- relative viability (Metformin + Lapatinib; first compound 316.23 µM): 1.01
- relative viability (Metformin + Lapatinib; first compound 1000 µM): 0.999

Cell Line: NCI-H522
- relative viability (Apatinib + Luminespib; first compound 0.08 µM): 1.14
- relative viability (Apatinib + Luminespib; first compound 0.253 µM): 1.08
- relative viability (Apatinib + Luminespib; first compound 0.8 µM): 1.27
- relative viability (Apatinib + Luminespib; first compound 2.53 µM): 1.07
- relative viability (Apatinib + Luminespib; first compound 8 µM): 0.955
- relative viability (Apatinib + Dasatinib; first compound 0.08 µM): 0.872
- relative viability (Apatinib + Dasatinib; first compound 0.253 µM): 0.882
- relative viability (Apatinib + Dasatinib; first compound 0.8 µM): 0.884
- relative viability (Apatinib + Dasatinib; first compound 2.53 µM): 0.892
- relative viability (Apatinib + Dasatinib; first compound 8 µM): 0.782

Cell Line: NCI-H2342
- relative viability (Apatinib + Luminespib; first compound 0.08 µM): 0.677
- relative viability (Apatinib + Luminespib; first compound 0.253 µM): 0.552
- relative viability (Apatinib + Luminespib; first compound 0.8 µM): 0.81
- relative viability (Apatinib + Luminespib; first compound 2.53 µM): 0.702
- relative viability (Apatinib + Luminespib; first compound 8 µM): 0.726
- relative viability (Apatinib + Dasatinib; first compound 0.08 µM): 0.267
- relative viability (Apatinib + Dasatinib; first compound 0.253 µM): 0.295
- relative viability (Apatinib + Dasatinib; first compound 0.8 µM): 0.307
- relative viability (Apatinib + Dasatinib; first compound 2.53 µM): 0.28
- relative viability (Apatinib + Dasatinib; first compound 8 µM): 0.283

Cell Line: HCC-366
- relative viability (Metformin + Navitoclax; first compound 10 µM): 1.12
- relative viability (Metformin + Navitoclax; first compound 31.62 µM): 1.12
- relative viability (Metformin + Navitoclax; first compound 100 µM): 1.06
- relative viability (Metformin + Navitoclax; first compound 316.23 µM): 0.991
- relative viability (Metformin + Navitoclax; first compound 1000 µM): 1.06
- relative viability (Metformin + Lapatinib; first compound 10 µM): 1.05
- relative viability (Metformin + Lapatinib; first compound 31.62 µM): 1.05
- relative viability (Metformin + Lapatinib; first compound 100 µM): 1
- relative viability (Metformin + Lapatinib; first compound 316.23 µM): 1.07
- relative viability (Metformin + Lapatinib; first compound 1000 µM): 1.01
- relative viability (Apatinib + Dasatinib; first compound 0.08 µM): 0.661
- relative viability (Apatinib + Dasatinib; first compound 0.253 µM): 0.559
- relative viability (Apatinib + Dasatinib; first compound 0.8 µM): 0.565
- relative viability (Apatinib + Dasatinib; first compound 2.53 µM): 0.647
- relative viability (Apatinib + Dasatinib; first compound 8 µM): 0.601

Cell Line: A549
- relative viability (Metformin + Navitoclax; first compound 10 µM): 0.895
- relative viability (Metformin + Navitoclax; first compound 31.62 µM): 1.03
- relative viability (Metformin + Navitoclax; first compound 100 µM): 1.04
- relative viability (Metformin + Navitoclax; first compound 316.23 µM): 0.843
- relative viability (Metformin + Navitoclax; first compound 1000 µM): 0.297
- relative viability (Metformin + Lapatinib; first compound 10 µM): 0.946
- relative viability (Metformin + Lapatinib; first compound 31.62 µM): 0.934
- relative viability (Metformin + Lapatinib; first compound 100 µM): 0.909
- relative viability (Metformin + Lapatinib; first compound 316.23 µM): 0.722
- relative viability (Metformin + Lapatinib; first compound 1000 µM): 0.923
